Experimental data as given in ChEMBL document CHEMBL3399977, “Design, synthesis and preliminary bioactivity studies of 2-thioxo-4-thiazolidinone derivatives as Bcl-2 inhibitors” (Bioorg Med Chem, 2015).

What was measured:
[1] = target: Bcl-2-like protein 1 (Homo sapiens, UniProt Q07817); assay: Inhibition of Bcl-XL (unknown origin) using 5-FAM-Bid-BH3 as substrate preincubated for 30 mins before substrate addition measured after 20 mins by fluorescence polarization technique
[2] = target: Apoptosis regulator Bcl-2 (Homo sapiens, UniProt P10415); assay: Inhibition of Bcl-2 (unknown origin) using 5-FAM-Bid-BH3 as substrate preincubated for 30 mins before substrate addition measured after 20 mins by fluorescence polarization technique
[3] = target: Induced myeloid leukemia cell differentiation protein Mcl-1 (Homo sapiens, UniProt Q07820); assay: Inhibition of Mcl-1 (unknown origin) using 5-FAM-Bid-BH3 as substrate preincubated for 30 mins before substrate addition measured after 20 mins by fluorescence polarization technique
[4] = tested on: MDA-MB-231; assay: Antiproliferative activity against human MDA-MB-231 cells after 48 hrs by MTT assay; type: functional, cell-based; details: MDA-MB-231, 48 h
[5] = cells; details: Homo sapiens, PC-3, 48 h
[6] = tested on: K562; assay: cells; details: Homo sapiens, K562, 48 h

Bcl-2-like protein 1, sequence (Q07817 whole entry): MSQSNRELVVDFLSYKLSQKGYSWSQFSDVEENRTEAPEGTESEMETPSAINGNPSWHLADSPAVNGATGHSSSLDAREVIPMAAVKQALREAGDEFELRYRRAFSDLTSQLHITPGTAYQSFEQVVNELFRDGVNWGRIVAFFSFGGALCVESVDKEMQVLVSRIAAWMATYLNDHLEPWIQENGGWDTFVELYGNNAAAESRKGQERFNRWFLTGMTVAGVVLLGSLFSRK
Induced myeloid leukemia cell differentiation protein Mcl-1, sequence (Q07820 whole entry): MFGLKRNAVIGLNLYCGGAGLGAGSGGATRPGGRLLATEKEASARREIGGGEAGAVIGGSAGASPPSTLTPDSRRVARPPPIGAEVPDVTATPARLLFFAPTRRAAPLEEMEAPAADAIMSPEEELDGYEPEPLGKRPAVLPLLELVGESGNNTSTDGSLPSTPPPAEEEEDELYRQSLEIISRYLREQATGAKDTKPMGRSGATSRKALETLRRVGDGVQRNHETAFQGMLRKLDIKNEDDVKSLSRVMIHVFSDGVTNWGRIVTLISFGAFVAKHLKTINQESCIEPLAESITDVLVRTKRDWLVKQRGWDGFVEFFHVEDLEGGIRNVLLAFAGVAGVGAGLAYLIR
Apoptosis regulator Bcl-2, sequence (P10415 whole entry): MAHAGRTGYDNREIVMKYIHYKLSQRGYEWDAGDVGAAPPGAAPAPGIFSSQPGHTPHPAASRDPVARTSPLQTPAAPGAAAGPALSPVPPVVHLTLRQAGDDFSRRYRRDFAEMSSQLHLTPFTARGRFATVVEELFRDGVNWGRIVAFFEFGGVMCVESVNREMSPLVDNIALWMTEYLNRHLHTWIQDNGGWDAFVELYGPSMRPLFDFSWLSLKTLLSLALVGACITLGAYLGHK

SMILES	Ki [2]	other results
O=C(NS(=O)(=O)c1ccccc1)[C@H](Cc1ccc(Br)cc1)N1C(=O)/C(=C/c2ccc(-c3ccc(Cl)cc3)cc2)SC1=S	470 nM	Ki ([1]; read-out: Ki): 390 nM; Ki [3]: 66 nM; IC50 [4]: 28800 nM; IC50 [5]: > 50000 nM; IC50 [6]: 20900 nM
O=C(NS(=O)(=O)c1ccc(Cl)c([N+](=O)[O-])c1)[C@H](Cc1ccccc1)N1C(=O)/C(=C/c2ccc(-c3ccc(Cl)cc3)cc2)SC1=S	1900 nM	
C[C@@H](C(=O)NS(=O)(=O)c1ccccc1)N1C(=O)/C(=C/c2ccc(-c3ccccc3)cc2)SC1=S	2400 nM	
COC(=O)c1ccc(-c2ccc(/C=C3\SC(=S)N([C@@H](Cc4ccc(Br)cc4)C(=O)NS(=O)(=O)c4ccccc4)C3=O)cc2)cc1	460 nM	
CSCC[C@@H](C(=O)NS(=O)(=O)c1ccccc1)N1C(=O)/C(=C/c2ccc(-c3ccccc3)cc2)SC1=S	950 nM	
O=C(NS(=O)(=O)c1ccc([N+](=O)[O-])cc1)[C@H](Cc1c[nH]c2ccccc12)N1C(=O)/C(=C/c2ccc(-c3ccc(Cl)cc3)cc2)SC1=S	680 nM	
O=C(NS(=O)(=O)c1ccc([N+](=O)[O-])cc1)[C@H](Cc1c[nH]c2ccccc12)N1C(=O)/C(=C/c2ccc(-c3ccc([N+](=O)[O-])cc3)cc2)SC1=S	80 nM	
O=C(NS(=O)(=O)c1ccc(Cl)c([N+](=O)[O-])c1)[C@H](Cc1ccccc1)N1C(=O)/C(=C/c2ccc(-c3ccccc3)cc2)SC1=S	540 nM	
O=C(NS(=O)(=O)c1ccc(Cl)cc1)[C@H](Cc1ccccc1)N1C(=O)/C(=C/c2ccc(-c3ccccc3)cc2)SC1=S	510 nM	
Cc1ccc(S(=O)(=O)NC(=O)[C@H](Cc2ccccc2)N2C(=O)/C(=C/c3ccc(-c4ccccc4)cc3)SC2=S)cc1	720 nM	Ki ([1]; read-out: Ki): 660 nM; Ki [3]: 250 nM
O=C(NS(=O)(=O)c1ccc([N+](=O)[O-])cc1)[C@H](Cc1ccc(Br)cc1)N1C(=O)/C(=C/c2ccc(-c3ccc(Cl)cc3)cc2)SC1=S	710 nM	Ki ([1]; read-out: Ki): 490 nM; Ki [3]: 63 nM; IC50 [4]: 28600 nM; IC50 [5]: 24100 nM; IC50 [6]: 9440 nM
O=C(NS(=O)(=O)c1ccc(Cl)c([N+](=O)[O-])c1)[C@H](Cc1ccc(Br)cc1)N1C(=O)/C(=C/c2ccc(-c3ccc(C(F)(F)F)cc3)cc2)SC1=S	1200 nM	
O=C(NS(=O)(=O)c1ccccc1)[C@H](Cc1c[nH]c2ccccc12)N1C(=O)/C(=C/c2ccc(-c3ccc([N+](=O)[O-])cc3)cc2)SC1=S	540 nM	
Cc1ccc(-c2ccc(/C=C3\SC(=S)N([C@@H](Cc4c[nH]c5ccccc45)C(=O)NS(=O)(=O)c4ccc([N+](=O)[O-])cc4)C3=O)cc2)cc1	720 nM	
O=C(NS(=O)(=O)c1ccc(Cl)c([N+](=O)[O-])c1)[C@H](Cc1ccc(Br)cc1)N1C(=O)/C(=C/c2ccc(-c3ccc(Cl)cc3)cc2)SC1=S	700 nM	
O=C(NS(=O)(=O)c1ccc(Cl)c([N+](=O)[O-])c1)[C@H](Cc1c[nH]c2ccccc12)N1C(=O)/C(=C/c2ccc(-c3ccc([N+](=O)[O-])cc3)cc2)SC1=S	750 nM	
O=C(NS(=O)(=O)c1ccccc1)[C@H](Cc1ccc(Br)cc1)N1C(=O)/C(=C/c2ccc(-c3ccccc3)cc2)SC1=S	520 nM	
O=C(NS(=O)(=O)c1ccc(Cl)c([N+](=O)[O-])c1)[C@H](Cc1ccc(Br)cc1)N1C(=O)/C(=C/c2ccc(-c3ccc([N+](=O)[O-])cc3)cc2)SC1=S	> 50000 nM	

SMILES	Ki [2]	other results
CC(C)[C@@H](C(=O)NS(=O)(=O)c1ccccc1)N1C(=O)/C(=C/c2ccc(-c3ccccc3)cc2)SC1=S	630 nM	
O=C(NS(=O)(=O)c1ccc([N+](=O)[O-])cc1)[C@H](Cc1c[nH]c2ccccc12)N1C(=O)/C(=C/c2ccc(-c3ccc(C(F)(F)F)cc3)cc2)SC1=S	750 nM	
O=C(NS(=O)(=O)c1ccc(Cl)c([N+](=O)[O-])c1)[C@H](Cc1ccccc1)N1C(=O)/C(=C/c2ccc(-c3ccc([N+](=O)[O-])cc3)cc2)SC1=S	2400 nM	
O=C(NS(=O)(=O)c1ccc([N+](=O)[O-])cc1)[C@H](Cc1ccccc1)N1C(=O)/C(=C/c2ccc(-c3ccc(Cl)cc3)cc2)SC1=S	660 nM	
O=C(NS(=O)(=O)c1ccc([N+](=O)[O-])cc1)[C@H](Cc1ccccc1)N1C(=O)/C(=C/c2ccc(-c3ccc([N+](=O)[O-])cc3)cc2)SC1=S	800 nM	
O=C(NS(=O)(=O)c1ccc([N+](=O)[O-])cc1)[C@H](Cc1ccc(Br)cc1)N1C(=O)/C(=C/c2ccc(-c3ccc(C(F)(F)F)cc3)cc2)SC1=S	900 nM	
O=C(NS(=O)(=O)c1ccccc1)[C@H](Cc1c[nH]c2ccccc12)N1C(=O)/C(=C/c2ccc(-c3ccc(Cl)cc3)cc2)SC1=S	470 nM	
O=C(NS(=O)(=O)c1ccc([N+](=O)[O-])cc1)[C@H](Cc1ccccc1)N1C(=O)/C(=C/c2ccc(-c3ccc(C(F)(F)F)cc3)cc2)SC1=S	850 nM	
O=C(NS(=O)(=O)c1ccc([N+](=O)[O-])cc1)[C@H](Cc1ccc(Br)cc1)N1C(=O)/C(=C/c2ccc(-c3ccc([N+](=O)[O-])cc3)cc2)SC1=S	360 nM	Ki [1]: Not Active; Ki [3]: 74 nM; IC50 [4]: 30400 nM; IC50 [5]: 40700 nM; IC50 [6]: 7900 nM
O=C(NS(=O)(=O)c1ccccc1)[C@H](Cc1ccc(Br)cc1)N1C(=O)/C(=C/c2ccc(-c3ccc([N+](=O)[O-])cc3)cc2)SC1=S	420 nM	Ki ([1]; read-out: Ki): 540 nM; Ki [3]: 86 nM; IC50 [4]: 46200 nM; IC50 [5]: > 50000 nM; IC50 [6]: > 50000 nM
Cc1cc2c(C(C)C)c(O)c(O)c(C=O)c2c(O)c1-c1c(C)cc2c(C(C)C)c(O)c(O)c(C=O)c2c1O [GOSSYPOL]		IC50 [4]: 9210 nM; IC50 [5]: 6260 nM; IC50 [6]: 4550 nM
O=C(NS(=O)(=O)c1ccc(Cl)c([N+](=O)[O-])c1)[C@H](Cc1ccccc1)N1C(=O)/C(=C/c2ccc(-c3ccc(C(F)(F)F)cc3)cc2)SC1=S	870 nM	
O=C(NS(=O)(=O)c1ccc([N+](=O)[O-])cc1)[C@H](Cc1ccccc1)N1C(=O)/C(=C/c2ccc(-c3ccccc3)cc2)SC1=S	450 nM	
COC(=O)c1ccc(-c2ccc(/C=C3\SC(=S)N([C@@H](Cc4ccccc4)C(=O)NS(=O)(=O)c4ccc(Cl)c([N+](=O)[O-])c4)C3=O)cc2)cc1	1400 nM	
O=C(NS(=O)(=O)c1ccccc1)[C@H](Cc1c[nH]c2ccccc12)N1C(=O)/C(=C/c2ccc(-c3ccccc3)cc2)SC1=S	730 nM	
O=C(NS(=O)(=O)c1ccccc1)[C@H](Cc1ccccc1)N1C(=O)/C(=C/c2ccc(-c3ccc([N+](=O)[O-])cc3)cc2)SC1=S	460 nM	
CC[C@H](C)[C@@H](C(=O)NS(=O)(=O)c1ccccc1)N1C(=O)/C(=C/c2ccc(-c3ccccc3)cc2)SC1=S	410 nM	
O=C(NS(=O)(=O)c1ccc(Cl)c([N+](=O)[O-])c1)[C@H](Cc1c[nH]c2ccccc12)N1C(=O)/C(=C/c2ccc(-c3ccc(Cl)cc3)cc2)SC1=S	5600 nM	
